The values below come from US20220089646A1 (THE UNIVERSITY OF QUEENSLAND, priority 2019, published 2022).

The nature of series [1]: Plasma stability assay (Table 10). In kind it is in vitro ADME. Conditions: both sexes, Wistar, rat plasma (EDTA), 37° C., 100 uM peptide, One Phase Decay, read-out: Stability (t1/2, mins) Plasma. The text has this: (§1) FIG. 20 is a series of graphs showing the stability of selected peptides in a trypsin (left-hand graphs) and plasma (right-hand graphs) stability assay (data normalised to concentration of each peptide at t=0, determined by LCMS, within each substrate; data analysed using One Phase Decay nonlinear regression in Prism software and each experiment performed in triplicate; mean+/−SEM);
The results shown in Table 10 utilized rat plasma. • Note that DP-7-11 and CP5 represent the same compound, and DP-7-12 and CP6 are the same compound. In this regard, a different regression analysis method was adopted on the above cAMP experiments. Particularly, a new non-linear regression (four-parameter) was adopted to better account for hill slope, thereby improving the regression fit.
(§2) Plasma was collected in house from adult mixed-gender Wistar rats, prepared using 2% EDTA as per standard practice. Peptides were added to rat plasma samples at 37° C. (in a water bath) with final concentrations of 100 uM (1:9 peptide in water:plasma) and a 50 μL sample was immediately taken and precipitated in 150 μL cold acetonitrile (9:1 ACN:water). This sample became the baseline, or t=0 min sample. Plasma with peptide was immediately returned to the water bath and subsequent 50 μL samples were taken at 5, 10, 15, 30, 60 and 120 min. At each time point, the 50 μL of plasma collected was immediately added to cold ACN. Each collected plasma sample in ACN was directly vortexed for 30 seconds and then centrifuged at room temperature (13K rpm, 5 min). 150 μL of the supernatant was taken and directly placed in glass HPLC vials for LCMS analysis.

The next series is described as follows: Stability in cAMP buffer. In kind it is physicochemical. The note with it: over 60 minutes. From the text: Select compounds were also screened for stability in cAMP buffer, to assess whether they degrade spontaneously in the cell assay environment, in the absence of cellular metabolic processes.
The target of series [2] is T1, bovine pancreatic trypsin (Bos taurus, UniProt P00760).
T1 construct: from tissue; host or cells: bovine pancreas
T1 sequence (P00760 24-246): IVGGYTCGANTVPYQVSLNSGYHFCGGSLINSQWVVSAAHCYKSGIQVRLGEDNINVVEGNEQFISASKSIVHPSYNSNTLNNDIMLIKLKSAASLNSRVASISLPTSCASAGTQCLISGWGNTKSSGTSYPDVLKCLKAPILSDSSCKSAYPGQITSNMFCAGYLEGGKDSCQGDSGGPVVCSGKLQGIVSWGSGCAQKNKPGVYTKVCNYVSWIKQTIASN
The series can be described thus: Trypsin stability assay (Table 10). In kind it is in vitro ADME. Conditions: bovine pancreatic trypsin solution; bovine pancreatic trypsin 2.5 μg/mL, 37° C., One Phase Decay; read-out: Stability (t1/2, mins) Trypsin.
Excerpt: as §1
as §2, with “Plasma with peptide was immediately returned to the water bath and subsequent 50 μL samples were taken at 5, 10, 15, 30, 60 and 120 min.” left out
The protocol for the trypsin stability assay was very similar to the plasma stability assay discussed above. The only difference was the use of a trypsin solution (bovine pancreatic trypsin 2.5 μg/mL in NH4HCO3 buffer, pH approx. 8-8.5, 37° C.) instead of rat plasma. Volumes, times and preparation protocols were exactly as mentioned above.

A further series deals with KOP (Homo sapiens, UniProt P41145). Description: Statistics for each peptide | IC50 (nM). The method, then: Table printed on a drawing sheet, FIG 12
Head of the field: Statistics for each peptide | IC50 (nM)
First copying reader's note: The table stands under a forest plot whose axis is labelled 'Mean IC50 ± 95% CI (nM)'; according to the description the IC50 values were measured in HEK-KOP cells.

The structures appear in SMILES notation. *1 amine or outer side, *2 acyl side, *3 side chain or, on linkers, in order; H or OH if unused. Where a SMILES comes first, the peptide text is derived from it. Bridges are numbered along the chain shown (N, C = ends). [ ]: non-standard residue; d: D form. NHCH2CMe2S = CC(C)(CN[*:1])S[*:2]

Chain of KOP (P41145 whole entry, looked up): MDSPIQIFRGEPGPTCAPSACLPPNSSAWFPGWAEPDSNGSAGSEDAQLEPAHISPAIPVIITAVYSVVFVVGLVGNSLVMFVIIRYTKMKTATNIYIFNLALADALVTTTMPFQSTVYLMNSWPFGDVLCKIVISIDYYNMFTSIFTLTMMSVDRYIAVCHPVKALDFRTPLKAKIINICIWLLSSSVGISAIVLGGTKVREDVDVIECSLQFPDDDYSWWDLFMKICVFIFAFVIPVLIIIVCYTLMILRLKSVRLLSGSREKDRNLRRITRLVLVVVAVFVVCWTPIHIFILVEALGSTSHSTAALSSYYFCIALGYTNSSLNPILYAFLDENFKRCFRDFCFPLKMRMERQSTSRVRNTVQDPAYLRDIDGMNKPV

The IC50 is the concentration that inhibits the measured activity by half. A higher IC50 goes with weaker potency in that assay. Turning to `CC1(C)CNC(=O)C[C@@H](NC(=O)[C@@H](N)Cc2ccc(O)cc2)C(=O)NCC(=O)N[C@@H](Cc2ccccc2)C(=O)N[C@H](C(=O)N[C@@H](CCCNC(=N)N)C(=O)N[C@@H](CCCNC(=N)N)C(N)=O)CSS1` [DP-7-12, c(Tyr-D(Asp)-Gly-Phe-SSa-Arg-Arg)] (H-Y[dD]GFCRR-NH2; linker 2-5 via NHCH2CMe2S), in series [1], the half-life at 100 uM was determined as 206 min. The “Degradation in cAMP assay buffer” value in the series “Stability in cAMP buffer” is reported as “no degradation”. Further, the half-life in series [2] was less than 0.01 min. Besides, half-maximal inhibition against KOP (IC50) required 4.49 ± 1.59 nM.
